Patent publication US20100197608A1, “USE OF MELANOTROPHIN-POTENTIATING FACTOR AS A THERAPEUTIC AGENT” (priority 2007, published 2010)
Where a SMILES comes first, the peptide text is derived from it.

Columns and labels:
[1] = system: HIV-1IIIB; experiment: HIV-1 antiviral assay (CPE reduction) in CEM-SS cells; assay type: cell-based; details: peptide 10 micrograms per ml; 6 days post-infection; MTS
[2] = system: CEM-SS cells; experiment: Cytotoxicity in CEM-SS cells (MTS); details: peptide 10 micrograms per ml
[3] = system: MRC-5 cells; details: human, 6 days
[4] = system: MRSA; details: 5 micrograms per ml
[5] = system: Streptococcus pneumoniae; assay type: cell-based; details: 5 micrograms per ml
[6] = in vitro; details: human, CEM-SS cells
[7] = in vitro; details: human, MRC-5 cells
[8] = system: Pseudomonas aeruginosa; assay type: cell-based; details: 5 micrograms per ml
[9] = Cytotoxicity in HepG2-2.2.15 cells (dye uptake); details: human

Cc1cn([C@H]2C[C@H](N=[N+]=[N-])[C@@H](CO)O2)c(=O)[nH]c1=O [AZT]
% CPE reduction in HIV-1 infected CEM-SS cells [1]: 99% | % Cell viability [2]: 97%

Nc1nc(O)c2ncn(COC(CO)CO)c2n1 [Ganciclovir]
% Cell viability [3]: 100%

CC(C)(C)NC(=O)[C@@H]1CN(Cc2cccnc2)CCN1C[C@@H](O)C[C@@H](Cc1ccccc1)C(=O)N[C@H]1c2ccccc2C[C@H]1O [Indinavir, indinavir]
% CPE reduction in HIV-1 infected CEM-SS cells [1]: 100%

NCCCC[C@H](NC(=O)[C@@H](N)CCCCN)C(=O)NCC(=O)N[C@@H](CCC(=O)O)C(=O)O [MPF, Lys-Lys-Gly-Glu-OH] (H-KKGE-OH)
% inhibition [4]: 0.0% | % inhibition [5]: 0.0% | viability at 10 micrograms per ml [6]: 100% | viability at 144 h [7]: 96.1% | % inhibition [8]: 0.0% | viability at 144 h, 10 micrograms per ml [9]: 100%
